Reference: patent publication US8609719B2, “Propargylated aminoindans, processes for preparation, and uses thereof” (priority 2006, dated 2013)
Where a name gives a salt, the structure may show the parent alone. Read-outs that look alike come from different tables or passages of the source.

How the values were obtained:
[1] = molecular target: T1, MAO-B (Rattus norvegicus, UniProt P19643); assay: MAO-B inhibition in rat organs after chronic P.O. administration; format: in vivo; settings: po, 7 days, 2 hours after last dose; for inhibition at 37.5 µmol/kg: 37.5 μmol/kg P.O. daily; for inhibition at 75 µmol/kg: 75 μmol/kg P.O. daily; for inhibition at 150 µmol/kg: 150 μmol/kg P.O. daily
T1 construct: from tissue; host or cells: brain, liver and intestine (duodenum) of dosed rats
T1 sequence (P19643 1-520): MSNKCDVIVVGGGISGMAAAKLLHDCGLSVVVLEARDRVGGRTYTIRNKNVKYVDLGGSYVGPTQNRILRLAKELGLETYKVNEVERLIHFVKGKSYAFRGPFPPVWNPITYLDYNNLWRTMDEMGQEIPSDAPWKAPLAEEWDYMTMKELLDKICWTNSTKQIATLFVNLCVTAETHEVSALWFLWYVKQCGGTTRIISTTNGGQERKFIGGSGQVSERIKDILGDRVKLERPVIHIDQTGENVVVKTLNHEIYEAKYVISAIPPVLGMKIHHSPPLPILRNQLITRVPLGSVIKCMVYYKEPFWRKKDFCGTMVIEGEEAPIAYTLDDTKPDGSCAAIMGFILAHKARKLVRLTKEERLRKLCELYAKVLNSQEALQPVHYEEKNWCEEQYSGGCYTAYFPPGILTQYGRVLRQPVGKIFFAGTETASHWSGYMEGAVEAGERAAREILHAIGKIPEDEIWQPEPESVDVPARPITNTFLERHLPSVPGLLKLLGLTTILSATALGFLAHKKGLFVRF
Method: 30 rats were separated randomly into 5 testing groups of 6 rats each. Group 1 was the control group to which no drug was administered. Ethyl-hydroxymethyl-carbamic acid 3-R-(prop-2-ynylamino)-indan-5-yl ester fumarate (2:1) was administered to groups 2, 3, 4 in dosages of 150, 75, and 37.5 μmol/kg respectively, daily, perorally (“P.O.”) for seven consecutive days. Water was used as a vehicle.
Rats were sacrificed, out of sight of the other rats, 2 hours after the last administration. Brains were removed into Petri dishes on ice, the cerebellums were […], and the brains cut into halves for analysis. Livers and intestines were removed for MAO determination. Organs were homogenated for enzyme inhibition analysis.
The MAO inhibition after administration of ethyl-hydroxymethyl-carbamic acid 3-R-(prop-2-ynylamino)-indan-5-yl ester fumarate (2:1) in various organs is listed in Table 4 calculated in percent relative to the control group.

[2] = molecular target: T2, Recombinant human AChE (Homo sapiens, UniProt P22303); assay: Inhibition of acetylcholinesterase activity in vitro (Ellman, stopped time assay); format: biochemical; design: ki (bimolecular rate constant): unit not given here
T2 construct: purchased Sigma-Aldrich Israel C-1682
T2 sequence (P22303 32-614): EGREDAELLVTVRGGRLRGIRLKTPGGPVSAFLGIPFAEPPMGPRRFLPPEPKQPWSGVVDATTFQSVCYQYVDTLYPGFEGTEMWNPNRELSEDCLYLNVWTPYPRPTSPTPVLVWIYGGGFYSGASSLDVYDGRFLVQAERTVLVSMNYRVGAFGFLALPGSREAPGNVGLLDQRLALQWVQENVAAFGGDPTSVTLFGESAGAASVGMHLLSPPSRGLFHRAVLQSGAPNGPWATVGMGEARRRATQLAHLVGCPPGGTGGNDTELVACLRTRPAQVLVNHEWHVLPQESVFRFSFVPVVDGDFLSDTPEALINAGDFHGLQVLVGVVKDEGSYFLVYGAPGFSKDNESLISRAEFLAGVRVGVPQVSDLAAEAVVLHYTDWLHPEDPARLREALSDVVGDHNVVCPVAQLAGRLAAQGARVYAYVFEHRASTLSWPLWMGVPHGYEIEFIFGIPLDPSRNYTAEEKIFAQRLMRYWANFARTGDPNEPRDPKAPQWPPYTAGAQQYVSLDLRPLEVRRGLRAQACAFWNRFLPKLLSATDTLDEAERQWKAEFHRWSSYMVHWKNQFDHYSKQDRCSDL
Method: Recombinant human AChE (C-1682), acetylthiocholine iodide (AcTh, A5771), bovine serum albumin (BSA, A-2153), and 5,5′-dithiobis(2-nitrobenzoic acid) (DTNB, D8130) were obtained from Sigma-Aldrich Israel. […] AChE was dissolved in phosphate buffer pH 8.0 containing 0.01% sodium azide NaAz and 1 mM EDTA and diluted to give a concentration of 15 units/ml. This solution was divided into aliquots of 0.5 ml, which were stored at −70° C. until use.
The inhibitory activity against AChE was determined by the method of Ellmann et al. (Biochemical Pharmacology, 1961 (7) 88-95) using AcTh as a substrate. To characterize the carbamoylation step, a traditional stopped time assay was performed, in which AChE was incubated at 37° C. with a minimum of 5 different concentrations of inhibitor in the assay buffer, and aliquots were transferred to an ELISA multiscan microplate reader (Labsystems) at various times for the determination of residual AChE activity, with Ascent PC software. The rate of reaction was measured at 412λ at 37° C. in 0.2 ml wells containing AChE 0.023 units per ml, DTNB 0.4-0.5 mM, AcTh 0.50 or 1 mM and BSA (0.05%) in 50 mM phosphate buffer as described above. Measurements were made every 5 min for up to 5 hours.
The inhibition of AChE by carbamates involves the formation of a reversible complex (EOH•CX), followed by carbamoylation of the enzyme to form (EOC) and a leaving group (HX). The carbamoylated enzyme is then hydrolyzed by water to regenerate the free enzyme (EOH).
The formation of the reversible complex is represented by the equilibrium constant: KD. For the carbamoylation phase of the inhibition process the unimolecular rate constant is represented by kmax, and the bimolecular rate constant by ki.

[3] = molecular target: T3, BuChE from human serum (Homo sapiens, UniProt P06276); assay: Inhibition of butyrylcholinesterase activity in vitro (Ellman, stopped time assay); format: biochemical; design: ki (bimolecular rate constant): unit not given here
T3 construct: BuChE from human serum (C-9971); purchased Sigma-Aldrich Israel C-9971; host or cells: purified from human serum
T3 sequence (P06276 29-602): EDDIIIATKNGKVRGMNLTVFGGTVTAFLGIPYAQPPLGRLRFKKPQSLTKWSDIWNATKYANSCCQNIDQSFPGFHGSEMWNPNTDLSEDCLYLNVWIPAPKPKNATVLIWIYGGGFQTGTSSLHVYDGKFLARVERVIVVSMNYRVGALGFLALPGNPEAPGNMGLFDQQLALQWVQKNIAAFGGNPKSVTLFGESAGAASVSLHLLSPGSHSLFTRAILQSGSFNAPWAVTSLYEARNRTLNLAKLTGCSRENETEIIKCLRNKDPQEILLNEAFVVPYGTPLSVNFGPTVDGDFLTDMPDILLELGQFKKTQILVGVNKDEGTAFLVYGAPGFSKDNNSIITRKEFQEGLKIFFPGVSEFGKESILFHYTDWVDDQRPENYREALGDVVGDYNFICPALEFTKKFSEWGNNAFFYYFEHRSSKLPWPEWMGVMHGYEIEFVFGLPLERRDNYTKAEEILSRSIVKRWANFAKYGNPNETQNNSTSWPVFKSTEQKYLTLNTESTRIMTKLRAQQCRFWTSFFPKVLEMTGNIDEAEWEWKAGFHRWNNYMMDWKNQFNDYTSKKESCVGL
Method: BuChE from human serum (C-9971), butyrylthiocholine iodide (BuTh, B3253), bovine serum albumin (BSA, A-2153) 5,5′-dithiobis(2-nitrobenzoic acid) (DTNB, D8130) were obtained from Sigma-Aldrich Israel. BuChE was dissolved in phosphate buffer pH 8.0 containing 0.01% sodium azide (NaAz) and 1 mM EDTA and diluted to give a concentration of 35.9 units/ml. This solution was divided into aliquots of 0.5 ml, which were stored at −70° C. until use.
The inhibitory activity against BuChE was determined by the method of Ellmann et al. (Biochemical Pharmacology, 1961 (7) 88-95) using BuTh as a substrate. To characterize the carbamoylation step, a traditional stopped time assay was performed, in which BuChE was incubated at 37° C. with a minimum of 5 different concentrations of inhibitor in the assay buffer, and aliquots were transferred to an ELISA multiscan microplate reader (Labsystems) at various times for the determination of residual BuChE activity, with Ascent PC® software. The rate of reaction was measured at 412λ at 37° C. in 0.2 ml wells containing […] 0.023 units per ml, DTNB 0.4-0.5 mM, AcTh 0.50 or 1 mM and BSA (0.05%) in 50 mM phosphate buffer as described above. For all compounds measurements were made every 2 min for 15 min and then every 15 min for 3 hr.
The inhibition of BuChE by carbamates involves the formation of a reversible complex (EOH•CX), followed by carbamoylation of the enzyme to form (EOC) and a leaving group (HX). The carbamoylated enzyme is then hydrolyzed by water to regenerate the free enzyme (EOH). The formation of the reversible complex is represented by the equilibrium constant: KD. For the carbamoylation phase of the inhibition process the unimolecular rate constant is represented by kmax, and the bimolecular rate constant by ki.

[4] = read-out: Brain MAO-B inhibition relative to control
[5] = read-out: Duodenum MAO-B inhibition relative to control
[6] = read-out: Liver MAO-B inhibition relative to control

C#CCN[C@@H]1CCc2ccc(OC(=O)N(CC)CO)cc21 [R-HCPAI, Ethyl-hydroxymethyl-carbamic acid 3-R-(prop-2-ynylamino)-indan-5-yl ester fumarate (2:1)]
inhibition at 37.5 µmol/kg [1, 4]: 17%
inhibition at 37.5 µmol/kg [1, 5]: 7%
inhibition at 37.5 µmol/kg [1, 6]: 15%
inhibition at 75 µmol/kg [1, 4]: 62%
inhibition at 75 µmol/kg [1, 5]: 31%
inhibition at 75 µmol/kg [1, 6]: 18%
inhibition at 150 µmol/kg [1, 4]: 83%
inhibition at 150 µmol/kg [1, 5]: 35%
inhibition at 150 µmol/kg [1, 6]: 34%
inhibition of acetylcholinesterase, in words [2]: weak inhibitor
ki (bimolecular rate constant) ([2]; AChE, 37° C.): 0.106 ± 0.008
kmax (unimolecular carbamoylation rate constant) ([2]; AChE, 37° C.): 0.033 min⁻¹
Kd ([2]; AChE, 37° C., read-out: KD (equilibrium constant of reversible complex)): 306 µM
inhibition of butyrylcholinesterase, in words [3]: weak inhibitor
ki (bimolecular rate constant) ([3]; BuChE, 37° C.): 0.936 ± 0.06
kmax (unimolecular carbamoylation rate constant) ([3]; BuChE, 37° C.): 0.104 ± 0.043 min⁻¹
Kd ([3]; BuChE, 37° C., read-out: KD (equilibrium constant of reversible complex)): 111 ± 50 µM

CNC(=O)Oc1ccc2c(c1)[C@H](N)CC2 [R-MCAI, Methyl-carbamic acid 3-R-amino-indan-5-yl ester hydrochloride]
inhibition of acetylcholinesterase, in words [2]: potent inhibitors
kmax (unimolecular carbamoylation rate constant) ([2]; AChE, 37° C.): 1.63 min⁻¹
Kd [3]: 36 ± 5 µM
inhibition of butyrylcholinesterase, in words [3]: potent inhibitors
ki (bimolecular rate constant) ([3]; BuChE, 37° C.): 14.5 ± 0.42
kmax (unimolecular carbamoylation rate constant) ([3]; BuChE, 37° C.): 0.516 ± 0.050 min⁻¹

C#CCN[C@@H]1CCc2ccc(OC(=O)NC)cc21 [R-MCPAI, Methyl-carbamic acid 3-R-(prop-2-ynylamino)-indan-5-yl ester hydrochloride]
inhibition of acetylcholinesterase, in words [2]: potent inhibitors
kmax (unimolecular carbamoylation rate constant) ([2]; AChE, 37° C.): 0.435 min⁻¹
Kd [3]: 21 ± 2 µM
inhibition of butyrylcholinesterase, in words [3]: potent inhibitors
ki (bimolecular rate constant) ([3]; BuChE, 37° C.): 31.3 ± 2.0
kmax (unimolecular carbamoylation rate constant) ([3]; BuChE, 37° C.): 0.65 ± 0.03 min⁻¹
